The target in assay [1] is T1, protein-farnesyl transferase (PFT) (Rattus norvegicus, UniProt Q02293+Q04631).
T1 construct: soluble fraction of rat's brain; from tissue; host or cells: rat brain, soluble fraction, 30%-50% ammonium sulfate cut, Q-Sepharose fraction
Nature of the assay: Inhibitory activities against protein-farnesyl transferase (PFT). Format: biochemical. The note with it: PFT from rat brain; prenyl acceptor H-ras protein or biotin-added Lys-Thr-Ser-Cys-Val-Ile-Met; 37° C., 20 minutes; read-out: 50% inhibitory concentrations against PFT activities, IC50.

The test system of assay [2] is farnesyl-modification of Ras protein in NIH3T3 cells transformed by activated ras gene. As to the kind of experiment: Inhibitory activities against farnesyl-modification of Ras protein in NIH3T3 cells transformed by activated ras gene. The class given is cell-based. The following applies: Mus musculus, 24 hours, read-out: 50% inhibitory concentrations against farnesyl-modification of Ras protein, IC50. The procedure: Using the compounds of the present invention, inhibitory activities against farnesyl-modification of Ras protein in NIH3T3 cells transformed by activated ras gene, were measured.
The NIH3T3 cells transformed by activated ras gene, were seeded on a culture plate and cultured for 3 days. Then, a compound of the preset invention in a predetermined concentration was added to the culture. In accordance with the method disclosed in J. Biol. Chem., vol. […] The cell extract was subjected to SDS polyacrylamide gel electrophoresis to separate farnesyl-modified Ras protein and non-farnesyl-modified Ras protein. The protein on the gel was transferred onto a nitrocellulose membrane, and an anti-Ras protein antibody was reacted as a probe (primary antibody reaction). An anti-primary antibody, a peroxidase inclusion (secondary antibody), was reacted, and then Ras protein was detected by a chemical fluorescence enhancing kit. The proportion of non-farnesyl-modified Ras protein was quantified by a densitometer and taken as the inhibitory activity.

Assay [3] relates to NIH3T3 Cells Transformed by Activated Ras Gene (NIH/ras). As to the kind of experiment: Antitumor effect against NIH/ras cells in nude mice, intraperitoneal (tumor weight). The class given is in vivo, nude mouse. The following applies: for Growth inhibition (tumor weight): once a day days 1-6, day 7; for Weight of tumor, Average ± standard deviation: once a day days 1-6, weighed day 7. From the text:
Pharmacological Test Example 3 (Therapeutic Effects to NIH3T3 Cells Transformed by Activated Ras Gene (NIH/ras))
(§1) ^1) Tumor inoculation: 10^6 cells were inoculated subcutaneously
(§2) to a female nude mouse.
^2) Dose: Each dose was intraperitonealy administered once a day from
the first day to the sixth day after the inoculation of the cells,.
^3) Weight of tumor: On the seventh day after inoculation of the
cells, the tumors were weighed.
^4) Growth inhibition: (1(average weight of tumor of the treated
group/average weight of tumor of the control group)) × 100
* and **: Statistical analyses by utest are 5% and 1%, respectively.

Assay [4] has the same test system. As to the kind of experiment: Antitumor effect against NIH/ras cells in nude mice, subcutaneous (tumor volume). Format: in vivo, nude mouse. The note with it: for Growth inhibition (tumor volume): once a day days 1-10, day 8; for Volume of tumor, Average ± standard deviation: once a day days 1-10, measured day 8, ** 1% (u test). The procedure:
as §1, §2
^2 Dose: Each dose was subcutaneously administered once a day from th
first day to the tenth day after the inoculation of the cells.
^3) Volume of tumor: On the eighth day after inoculation of the cells
volume of the tumors were measured.
^4) Growth inhibition: (1(average volume of tumor of the treated
group/average volume of tumor of the control group)) × 100

Setting [5] is: 10 mg/kg/injection subcutaneous.
Where [6] appears, read: 20 mg/kg/injection subcutaneous.
Setting [7] is: 40 mg/kg/injection subcutaneous.

This is an account of results in patent publication US6011174A, “Cyclic amic acid derivatives” (Banyu Pharmaceutical Co., Ltd., priority 1996, dated 2000).

In the case of `C[C@H]([C@H](CCc1ccccc1)c1ccc(Oc2ccccc2)cc1)N(CC(=O)O)C(=O)[C@@H]1OC(C(=O)O)(C(=O)O)O[C@@H]1C(=O)O` (relative stereo) [Example 23 (4R*, 5S*)-isomer, (4R*,5S*)-4-[N-(carboxymethyl)-N-{(1R,2R)-1-methyl-2-(4-phenoxyphenyl)-4-phenylbutyl}carbamoyl]-1,3-dioxolane-2,2,5-tricarboxylic acid], the results for the IC50 in assay [1] and in assay [2] were 0.085 nM and 2100 nM, respectively.
In the case of `C[C@H]([C@H](CCc1ccccc1)c1ccc(Oc2ccccc2)cc1)N(CC(=O)O)C(=O)[C@H]1OC(C(=O)O)(C(=O)O)O[C@H]1C(=O)O` (relative stereo) [Example 23 (4S*, 5R*)-isomer, (4S*,5R*)-4-[N-(carboxymethyl)-N-{(1R,2R)-1-methyl-2-(4-phenoxyphenyl)-4-phenylbutyl}carbamoyl]-1,3-dioxolane-2,2,5-tricarboxylic acid], the results for the IC50 in assay [1] and in assay [2] were 0.075 nM and 2000 nM, respectively.
The like results for `COc1cc(C(CCc2ccccc2)C(C)N(CC(=O)O)C(=O)[C@@H]2COC(C(=O)O)(C(=O)O)O2)ccc1Oc1ccccc1` (single isomer, unassigned) [Example 31] were, in that order, 0.22 nM and 550 nM.
The like results for `CC(C(CCc1ccccc1)c1ccc(Oc2ccccc2)c(O)c1)N(CC(=O)O)C(=O)[C@@H]1COC(C(=O)O)(C(=O)O)O1` (single isomer, unassigned) [Example 32] were, in that order, 0.2 nM and 590 nM.
For the compound `C[C@H]([C@H](CCc1ccccc1)c1ccc(Oc2ccccc2)cc1)N(CC(=O)O)C(=O)[C@@H]1COC(C(=O)O)(C(=O)O)O1` [Example 9, (4S)-4-[N-(carboxymethyl)-N-{(1R,2R)-1-methyl-2-(4-phenoxyphenyl)-4-phenylbutyl}carbamoyl]-1,3-dioxolane-2,2-dicarboxylic acid], the IC50 in assay [1] was found to be 0.16 nM; in assay [2], 240 nM. In addition, the “Growth inhibition (tumor weight)” value in assay [3] (20 mg/kg/injection intraperitoneal) is 67%; in assay [3] (40 mg/kg/injection intraperitoneal), 80%; in assay [3] (80 mg/kg/injection intraperitoneal), 90%; in assay [3] (160 mg/kg/injection intraperitoneal), 98%. The “Weight of tumor, Average ± standard deviation” value in assay [3] (20 mg/kg/injection intraperitoneal, * 5% (u test)) is 0.024 ± 0.018 g; in assay [3] (40 mg/kg/injection intraperitoneal, ** 1% (u test)) it was 0.015 ± 0.013 g; in assay [3] (80 mg/kg/injection intraperitoneal, ** 1% (u test)), 0.008 ± 0.006 g; in assay [3] (160 mg/kg/injection intraperitoneal, ** 1% (u test)), 0.002 ± 0.001 g.
`C[C@H]([C@H](CCc1ccccc1)c1ccc(Oc2ccccc2)cc1)N(CC(=O)O)C(=O)[C@@H]1OC(C(=O)O)(C(=O)O)O[C@H]1C(=O)O` [Example 21, (4R,5R)-4-[N-(carboxymethyl)-N-{(1R,2R)-1-methyl-2-(4-phenoxyphenyl)-4-phenylbutyl}carbamoyl]-1,3-dioxolane-2,2,5-tricarboxylic acid]: the IC50 was found to be 0.098 nM in assay [1] and 2100 nM in assay [2].
Take `C[C@H]([C@H](CCc1ccccc1)c1ccc(Oc2ccccc2)cc1)N(CC(=O)O)C(=O)[C@H]1OC(C(=O)O)(C(=O)O)O[C@@H]1C(=O)O` [Example 22, (4S,5S)-4-[N-(carboxymethyl)-N-{(1R,2R)-1-methyl-2-(4-phenoxyphenyl)-4-phenylbutyl}carbamoyl]-1,3-dioxolane-2,2,5-tricarboxylic acid]: the IC50 came to 0.095 nM in assay [1] and 1900 nM in assay [2]. In addition, the results for the “Growth inhibition (tumor volume)” value in assay [4] (setting [5]), in assay [4] (setting [6]) and in assay [4] (setting [7]) were 75%, 92% and 99%, respectively. The figures for the “Volume of tumor, Average ± standard deviation” value in assay [4] (setting [5]), in assay [4] (setting [6]) and in assay [4] (setting [7]) were 0.164 ± 0.073 cm^3, 0.052 ± 0.030 cm^3 and 0.010 ± 0.009 cm^3, respectively.
